For assay [1], the system named is Mus musculus. Nature of the assay: Hypoglycemic effect in sucrose-challenged ICR mouse assessed as blood glucose level at 10 mg/kg, po after 60 mins by glucose oxidase method (reference value: 183.3 +/- 29.1 mg/dL). Format: functional.
Assay [2] can be described thus: Inhibition of rat intestinal alpha-glucosidase using sucrose as substrate assessed as glucose formation incubated for 10 mins prior to substrate addition measured after 30 mins by glucose oxidase method.
Assay [3] deals with Mus musculus. The assay is described as follows: Hypoglycemic effect in starch-challenged ICR mouse assessed as blood glucose level at 10 mg/kg, po after 30 mins by glucose oxidase method (reference value: 278.9 +/- 33.5 mg/dL). It is filed as functional.
In assay [4] the test system is Mus musculus. The assay is described as follows: Hypoglycemic effect in starch-challenged ICR mouse assessed as blood glucose level at 10 mg/kg, po after 60 mins by glucose oxidase method (reference value: 243.0 +/- 29.0 mg/dL). Format: functional.
Assay [5] concerns Mus musculus. Nature of the assay: Hypoglycemic effect in sucrose-challenged ICR mouse assessed as glucose AUC at 10 mg/kg, po by glucose oxidase method (reference value: 323.2 +/- 37.2 mg.hr/dL). Format: functional, organism-based. Further details: dose 10 mg/kg.
Assay [6] relates to Mus musculus. The assay is described as follows: Hypoglycemic effect in starch-challenged ICR mouse assessed as blood glucose level at 10 mg/kg, po after 120 mins by glucose oxidase method (reference value: 174.2 +/- 22.9 mg/dL). It is filed as functional.
Assay [7] relates to Mus musculus. The assay is described as follows: Hypoglycemic effect in sucrose-challenged ICR mouse assessed as blood glucose level at 10 mg/kg, po after 120 mins by glucose oxidase method (reference value: 137.8 +/- 14.5 mg/dL). Format: functional.
For assay [8], the system named is Mus musculus. Nature of the assay: Hypoglycemic effect in sucrose-challenged ICR mouse assessed as blood glucose level at 10 mg/kg, po after 30 mins by glucose oxidase method (reference value: 187.4 +/- 21.6 mg/dL). Format: functional.
Assay [9] concerns Mus musculus. The assay is described as follows: Hypoglycemic effect in starch-challenged ICR mouse assessed as glucose AUC at 10 mg/kg, po by glucose oxidase method (reference value: 430.1 +/- 44.7 mg.hr/dL). Format: functional, organism-based. Further details: dose 10 mg/kg.

One may read the IC50 as the concentration needed to halve the response being measured. On to `OC[C@@H](O)[C@H]1N[C@H](CO)[C@@H](O)[C@@H]1O`, for which the Activity came to 147.3 mg/dL with Mus musculus [1]; 262.8 mg/dL with Mus musculus [3]; 216.2 mg/dL in the assay with Mus musculus [4]; 150.3 mg/dL in the assay on Mus musculus [6]; 136.7 mg/dL in the assay on Mus musculus [7]; 179 mg/dL in the assay on Mus musculus [8]. For the same compound, in [2], the IC50 worked out at 0.92 µM. Further, the AUC in the assay with Mus musculus [5] worked out at 2.94e+06 ng·h/mL; in the assay on Mus musculus [9], 3.9e+06 ng·h/mL.
As to `CCCCN1[C@H](CO[C@@H]2O[C@H](CO)[C@@H](O)[C@H](O)[C@H]2O)[C@H](O)[C@@H](O)[C@H](O)[C@H]1CO`, the 50% inhibitory concentration (IC50) in assay [2] worked out at 22.9 µM.
`OC[C@H]1N[C@H](CO[C@@H]2O[C@H](CO)[C@@H](O)[C@H](O)[C@H]2O)[C@H](O)[C@@H](O)[C@@H]1O`: the Activity amounted to 135.1 mg/dL in the assay on Mus musculus [1]; 187.1 mg/dL with Mus musculus [3]; 204.1 mg/dL in the assay with Mus musculus [4]; 146.8 mg/dL in the assay on Mus musculus [6]; 133.3 mg/dL in the assay with Mus musculus [7]; 130.8 mg/dL in the assay on Mus musculus [8]. Besides, the IC50 in assay [2] turned out to be 4.22 µM. Further, the AUC was found to be 2.58e+06 ng·h/mL in the assay with Mus musculus [5] and 3.41e+06 ng·h/mL with Mus musculus [9].
On to `CN1[C@H](CO)[C@H](O)C[C@H](O)[C@H]1CO`, for which, in [2], the IC50 was found to be 20 µM.
With `OCCCCCCCC[C@H]1N[C@H](CO)[C@@H](O)[C@H](O)[C@H]1O`, the IC50 in [2] was found to be 5.53 µM.
The same measure, in the same setting: the value for `C[C@@H]1[C@H](O)[C@@H](O)[C@H](O)[C@@H](CO)N1C` was 0.72 µM; that for `CN1[C@H](CO)[C@@H](O)C[C@@H](O)[C@@H]1CO` was 22.2 µM.
For `CN1[C@H](CO[C@@H]2O[C@H](CO)[C@@H](O)[C@H](O)[C@H]2O)[C@H](O)[C@@H](O)[C@H](O)[C@H]1CO`, the IC50 in assay [2] turned out to be 24.3 µM.
Turning to `C[C@H]1N[C@H](CO)[C@@H](O)[C@H](O)[C@H]1O`, the IC50 in [2] came to 22.1 µM.
Regarding `OC[C@H]1N[C@H](CO)[C@@H](O)[C@H](O)[C@H]1O`, the Activity in the assay with Mus musculus [1] was 149.9 mg/dL; with Mus musculus [3] it was 129.3 mg/dL; with Mus musculus [4] it was 176.4 mg/dL; in the assay on Mus musculus [6] it was 161.2 mg/dL; in the assay with Mus musculus [7], 136.4 mg/dL; with Mus musculus [8], 126 mg/dL. Also, the concentration for half-maximal inhibition (IC50) in [2] was found to be 0.09 µM. Further, the figures for the AUC in the assay with Mus musculus [5] and in the assay with Mus musculus [9] were 2.68e+06 ng·h/mL and 2.99e+06 ng·h/mL, respectively.
Consider `OC[C@H]1N[C@H](CO[C@H]2O[C@H](CO)[C@@H](O)[C@H](O)[C@H]2O)[C@H](O)[C@@H](O)[C@@H]1O`, for which the half-maximal inhibitory concentration (IC50) in assay [2] was determined as 38.6 µM.
For the compound `CN1[C@H](CO)[C@H](O)[C@@H](O)[C@H](O)[C@H]1CO`, the Activity in the assay with Mus musculus [1] worked out at 114 mg/dL; in the assay on Mus musculus [3] it was 141 mg/dL; in the assay with Mus musculus [4], 144.8 mg/dL; in the assay on Mus musculus [6], 141.2 mg/dL; with Mus musculus [7], 115.6 mg/dL; in the assay on Mus musculus [8], 121.4 mg/dL. For the same compound, the 50% inhibitory concentration (IC50) in assay [2] is 0.08 µM. Also, the AUC was determined as 2.28e+06 ng·h/mL with Mus musculus [5] and 2.72e+06 ng·h/mL in the assay with Mus musculus [9].
For the compound `OC[C@@H]1N[C@H](CO)[C@@H](O)[C@H](O)[C@H]1O`, the IC50 in [2] turned out to be 24.3 µM.
Regarding `OC[C@@H]1N[C@H](CO)[C@@H](O)[C@H](O)[C@@H]1O`, the IC50 in assay [2] came out at 19.2 µM.
As to `C[C@H]1O[C@H](O[C@H]2[C@H](O)[C@@H](O)[C@@H](O[C@H]3[C@H](O)[C@@H](O)C(O)O[C@@H]3CO)O[C@@H]2CO)[C@H](O)[C@@H](O)[C@@H]1N[C@H]1C=C(CO)[C@@H](O)[C@H](O)[C@H]1O` (stereo partly specified) [ACARBOSE], the Activity in the assay on Mus musculus [1] came out at 118.4 mg/dL; in the assay with Mus musculus [3] it was 164.8 mg/dL; in the assay with Mus musculus [4], 187.7 mg/dL; in the assay with Mus musculus [6], 177.5 mg/dL; in the assay with Mus musculus [7] it was 111.9 mg/dL; in the assay with Mus musculus [8] it was 114.6 mg/dL. For the same compound, the half-maximal inhibitory concentration (IC50) in assay [2] is 0.54 µM. Besides, the AUC in the assay with Mus musculus [5] turned out to be 2.23e+06 ng·h/mL; in the assay on Mus musculus [9], 3.34e+06 ng·h/mL.
For the compound `OC[C@H]1N[C@H](CO)[C@@H](O)[C@@H](O)[C@H]1O`, the IC50 in assay [2] is 24.9 µM.

The record behind these values is ChEMBL document CHEMBL2440056, “α-Glucosidase-inhibitory iminosugars from the leaves of Suregada glomerulata” (Bioorg Med Chem, 2013).
